Measurements from patent US4954520A, “1,3-dioxolane derivatives useful in the treatment of inflammation” (G. D. Searle & Co., priority 1989, dated 1990).
Where a name gives a salt, the structure may show the parent alone.

Tested on: LTB4 production in HL-60 cells
Experiment: A23187-Induced LTB4 Production in Human Promyelocytic Leukemia HL-60 Cells (HL-60 Cell Assay)
Type: cell-based
Details: for inhibition at 100 µM: 10^-4 M; for inhibition at 10 µM: 10^-5 M; for IC50: A23187-stimulated differentiated HL-60 cells, 10 minutes preincubation at 37° C.
Description: A23187-Induced LTB4 Production in Human Promyelocytic Leukemia HL-60 Cells.
Calcium ionophore A23187 was obtained from Calbiochem (La Jolla, CA). Trans-stilbene oxide was obtained from Sigma (St. Louis, MO). Hanks' balanced salt solution (HBSS) (10X concentrate), 1 M Hepes, and Dulbecco's modified Eagle medium were obtained from GIBCO Laboratories (Grand Island, NY). Fetal bovine serum was obtained from HyClone Laboratories (Logan, UT) The LTB4 and PGE2 radioimmunoassay antibodies were purchased from Amersham International plc (Amersham, UK) and NEN Research Products (N. Billerica, MA), respectively. Reagents for assay of lactate dehydrogenase (LDH) activity were purchased from Beckman (Carlsbad, CA).
Preparation of HL 60 Cells:
HL-60 cells were cultured in Dulbecco's modified Eagle medium (supplementedwith 20% fetal bovine serum, 20 mM Hepes, 100 U/ml penicillin and 100 mcg/ml streptomycin) and maintained at 37° C. in a humidified atmosphere of 5% CO2 in air. Cells from exponentially growing cultures were seeded at 3×10^5 cells/ml and induced to differentiate into granulocyte with 0.8% (v/v) N,N dimethylformamide for 4 days (1,2). Prior to assay, differentiated HL-60 cells were washed once with Hanks' balanced salt solution containing 0.35 mg/ml sodium bicarbonate and 10 mM Hepes, pH 7.3 (HBSS) and resuspended in HBSS at a concentration of 3×10^6 cells/ml.
DMSO or test compounds as 100× concentrates in DMSO were added in duplicate to 1.0 ml HL-60 cell suspensions (3×10^6 cells) and preincubated at 37° C. for 10 minutes in a shaking water bath. After an additional 5 minute incubation with calcium ionophore A23187 (10 mcl @ 5×10^-4 M in DMSO), the cells were pelleted at 12,800×g for 15 seconds and the supernatant removed and stored at […] for quantification of LTB4 or PGE2 via radioimmunoassay and LDH activity.
LTB4 and PGE2 data were expressed as percent inhibition of A23187-stimulated controls. For IC50 determinations, the 4 parameter logistic model was used where y is the percent inhibition response and×is the log10 concentration of the inhibitor: [formula] Nonlinear regression was performed using the SAS (3) procedure NLIN to obtain least squares estimates of the four parameters in the above equation: y.infin. (maximum), Y0 (minimum), a (log10 IC50) and b (slope factor). Increases in mean LDH levels for A23187-stimulated cells in the presence of test compound were tested for significance using a one tailed two sample Student's t-test.

Structure (SMILES)	inhibition at 100 µM (A23187-stimulated HL-60 cells) [%]	inhibition at 10 µM (A23187-stimulated HL-60 cells) [%]	IC50 [µM]	inhibition at 1 µM (10^-6 M, A23187-stimulated HL-60 cells) [%]
CCCCCCCCCC/C=C/C=C/C1OCC(CCCC(=O)O)O1 (single isomer, unassigned) [Example 5B (Single Diastereomer), 2-Tetradeca-1E,3E-dienyl-1,3-dixolane-4-butanoic acid, lithium salt]	91	77	7.2	
CCCCCCC/C=C/C=C/C1OCC(CCCC(=O)O)O1 (racemic) [Example 8B, (±) 2-Undeca-1E,3E-dienyl-1,3-dioxolane-4-butanoic acid, lithium salt]	84			
CCCCCCCCCC/C=C/C=C/C1OCC(CCCC(=O)O)O1 (racemic) [Example 5B (Racemic Mixture), 2-Tetradeca-1E,3E-dienyl-1,3-dixolane-4-butanoic acid, lithium salt]	96	80	6.8	
CCCCCCCCCC/C=C/C=C/C1OCC(c2cccc(C(=O)O)c2)O1 (racemic) [Example 7B (Racemic Mixture), 3-(2-Tetradeca-1E,3E-dienyl-1,3-dioxolan-4-yl)benzoic acid, lithium salt]	89	91	2.5	21
CCCCCCCCCC/C=C/C=C/C1OCC(c2cccc(C(=O)[O-])c2)O1.[Li+] (single isomer, unassigned) [Example 7B (Single diastereomer), 3-(2-Tetradeca-1E,3E-dienyl-1,3-dioxolan-4-yl)benzoic acid, lithium salt]	92	92	3.6	
